Legend:
human T cells [1] = assay: ConA-induced activation and expansion of human T cells (high-throughput screen); format: cell-based
Procedure: T cell stimulation—For human T cell proliferation assays, peripheral blood lymphocytes were obtained by leukapheresis/elutriation and Miltenyi bead-purified and K562 cells expressing human CD32 were generated as previously described^41. […] PBMCs were labeled with CELLTRACE Violet stain (Invitrogen) according to the manufacturer's instructions and cocultured with loaded K32 cells at a 10:1 T cells:K32 ratio or activated with ConA (2 μg/ml, Sigma). Proliferation of stimulated T cells was determined 7 days later by FACS and Division Index was calculated using FlowJo software.
(§1) EC50 values were calculated from normalized percent inhibition data using non-linear curve fitting in PRISM software.

MCF-7 tumor cells = assay: MCF-7 cell proliferation, MTS assay; format: cell-based, human; conditions: 2 days
Procedure: Representative results from one of two independent experiments.
(§2) Cell proliferation assays—Cells were plated in 96-well plates. Compounds were added the next morning, and cell proliferation was measured 48 hrs later with the […] 96 MTS assay (Promega) according to the manufacturer's instructions. Molecular screening of compounds on A2780 cells was performed by adding compounds the morning after plating in 384-well plates and measuring proliferation 72 hrs later with resazurin fluorescence. Normalized percent inhibition (NPI) was calculated with respect to fluorescence values obtained with DMSO negative control and doxorubicin (5 μM) positive control as NPI=100%*(DMSO−compound)/(DMSO−doxorubicin). TCR ligation of human CD8 T cells

human T cells [2] = assay: aAPC (anti-CD3/anti-CD28)-induced human T cell proliferation, CELLTRACE; format: cell-based; conditions: 7 days
Procedure: Four plots show proliferation of CD8 cells after 7 days is shown. […] Proliferation of CD8 cells after 7 days is shown. T cell stimulation-For human T cell proliferation assays, peripheral blood lymphocytes were obtained by leukapheresis/elutriation and Miltenyi bead-purified and K562 cells expressing human CD32 were generated as previously described^41. […] were γ-irradiated (100 Gy) and loaded with anti-CD3 (500 ng/ml, clone OKT3; eBioscience) plus anti-CD28 (500 ng/ml, clone 15E8; EMD Millipore) antibodies at room temperature for 10 minutes. PBMCs were labeled with CELLTRACE Violet stain (Invitrogen) according to the manufacturer's instructions and cocultured with loaded […] cells at a 10:1 T cells:[…] ratio or activated with ConA (2 μg/ml, Sigma). Proliferation of stimulated T cells was determined 7 days later by FACS and Division Index was calculated using FlowJo software.

[3] = test system: A2780 ovarian cancer cells; assay: Molecular screening of compounds on A2780 cell proliferation (resazurin fluorescence); format: cell-based, human; conditions: except at a high concentration
Procedure: as §2, §1

ERK1/2 phosphorylation = assay: TCR ligation of human CD8 T cells, Western blot for ERK1/2 phosphorylation; format: cell-based
Procedure: FIG. 2C is a blot showing FACS-sorted human CD8 T cells that were stimulated by anti-CD3/CD28 crosslinking in the presence of the indicated compounds as described in methods. After 10 min, cells were harvested for Western blotting.
CD8+ cells were sorted from PBMCs and rested overnight in R10. T cells (0.5×10^6 per condition) were stained with OKT3-biotin (BioLegend, 10 μg/ml) for 15 mins on ice, and washed in cold PBS. TCR ligation was performed by adding streptavidin (Promega, 25 μg/ml) and anti-CD28 (Millipore, clone 15E8, 1 μg/ml) in the presence of indicated inhibitors for 10 min at 37° C.
Western blotting—Cells were lysed in RIPA buffer (Thermo Scientific) with protease inhibitors (Complete Protease Inhibitor Cocktail Tablets, Roche) and phosphatase inhibitors (Halt Phosphatase Inhibitor, Thermo Scientific, and Na3VO4, 1 mM) and cleared by centrifugation. Proteins were quantified by BCA assay (Thermo Scientific), diluted in reducing lamelli buffer, denatured by incubation at 95° C., run on mini Protean TGX Ready Gels (Bio-Rad Laboratories), transferred to a nitrocellulose membrane, blocked, and incubated with primary antibodies for p-ERK1/2 (Cell Signaling Technologies, clone D13.14.4E), p-AKT (Cell Signaling Technologies, clone D9E), beta-tubulin (Cell Signaling Technologies, clone 9F3), beta-actin (Sigma, clone AC-15), or IGF-1R (Cell Signaling Technologies, #3027). Immunoreactive bands were developed using horseradish peroxidase-conjugated secondary antibodies (Bio-Rad Laboratories) and ECL substrate (GE Healthcare).

osteopontin (SPP1) = assay: LC-MS/MS of culture supernatants from Brpkp110 cells; format: cell-based, mouse; conditions: 200 nM, 40 hrs
Procedure: Supernatants were collected, centrifuged, passed through a 0.22 μm filter, and concentrated by centrifugation in Amicon 3000 MWCO tubes (EMD Millipore). Concentrated sups were run 0.5 cm on a NuPage 12% Gel with MES buffer, extracted, and digested with trypsin.
Liquid chromatography tandem mass spectrometry (LC-MS/MS) analysis was performed by the Wistar Proteomics Facility using a Q Exactive Plus mass spectrometer (Thermo Scientific) coupled with a Nano-ACQUITY UPLC system (Waters). Samples were injected onto a UPLC Symmetry trap column (180 μm i.d.×2 cm packed with 5 μm C18 resin; Waters), and tryptic peptides were separated by RP-HPLC on a BEH C18 nanocapillary analytical column (75 μm i.d.×25 cm, 1.7 μm particle size; Waters) using a gradient formed by solvent A (0.1% formic acid in water) and solvent B (0.1% formic acid in acetonitrile). Peptides were eluted at 200 nL/min for 5-30% B over 225 min, 30-80% B over 5 min, constant 80% B for 10 min before returning to 5% B over 1 min. A 30-min blank gradient was run between sample injections to minimize carryover. Eluted peptides were analyzed by the mass spectrometer set to repetitively scan m/z from 400 to 2000. […]
MS data were analyzed with MaxQuant 1.5.2.8 software^42. […]

Brpkp110 cells = assay: Brpkp110 cell proliferation, MTS assay; format: cell-based, mouse; conditions: in vitro, 2 days
Procedure: as §2

human T cells [4] = assay: Cytokine rescue of human T cell proliferation from MEK inhibition; format: cell-based
Procedure: Proliferation of CD8 T cells after 7 days is shown.
FIG. 2D is a graph showing that human PBMCs were activated as in FIG. 2B with the indicated compounds, BKM120=2 μM.
Reported are percentages of cells that proliferated with GDC0973 relative to vehicle treatment with the same cytokines after 7 days. Stains are not depicted.
T cell stimulation—For human T cell proliferation assays, peripheral blood lymphocytes were obtained by leukapheresis/elutriation and Miltenyi bead-purified and K562 cells expressing human CD32 were generated as previously described^41. K32 were γ-irradiated (100 Gy) and loaded with anti-CD3 (500 ng/ml, clone OKT3; eBioscience) plus anti-CD28 (500 ng/ml, clone 15E8; EMD Millipore) antibodies at room temperature for 10 minutes. PBMCs were labeled with CELLTRACE Violet stain (Invitrogen) according to the manufacturer's instructions and cocultured with loaded K32 cells at a 10:1 T cells:K32 ratio or activated with ConA (2 μg/ml, Sigma). Proliferation of stimulated T cells was determined 7 days later by FACS and Division Index was calculated using FlowJo software.

Question: Which “activity on T cells” value (human T cells [1]; except at a high concentration) does the source give for `C[C@]1(O)C[C@@H](c2nc(-c3ccc4ccc(-c5ccccc5)nc4c3)c3c(N)nccn32)C1` [OSI906] here?
Answer: did not show any activity

Question: What about the “tumor cell proliferation of MCF-7 cells” value (MCF-7 tumor cells) of the same compound?
Answer: a reduction in tumor cell proliferation at concentrations that did not affect T cells

Question: What about the “proliferation of human T cells in response to aAPC coated with agonistic CD3 and CD28 antibodies” value (human T cells [2]) of the same compound?
Answer: did not impact

Question: What about the “activity on A2780 cells” value [3] of the same compound?
Answer: did not show any activity

Question: How did the “ERK phosphorylation under PI3K inhibition” value (ERK1/2 phosphorylation; without fully restoring AKT phosphorylation) turn out when `CCCCCCCCCCCCCC(=O)O[C@@H]1[C@@H](C)[C@@]2(O)[C@@H](C=C(CO)C[C@]3(O)C(=O)C(C)=C[C@@H]23)[C@@H]2C(C)(C)[C@]12OC(C)=O` [PMA, phorbol-12-myristate-13-acetate] was run?
Answer: completely overcomes the suppressive effect

Question: Which results are given for `CC(=O)Nc1cccc(-n2c(=O)n(C3CC3)c(=O)c3c(Nc4ccc(I)cc4F)n(C)c(=O)c(C)c32)c1` [trametinib]?
Answer: EC50 (human T cells [1]; T-cell, 168 h, human T cells activated with ConA for 7 days, N/A = ambiguous curve fits or EC50 greater than the highest concentration tested (25 μM)): 337 pM; decrease of osteopontin (SPP1) in Brpkp110 supernatants (osteopontin (SPP1)): > 18 fold; growth compared to vehicle (Brpkp110 cells): 70%

Question: Which “rescue of T cell proliferation in the presence of the MEK inhibitors” value (human T cells [4]; GDC0973 or trametinib) does the source give for “IL-15: recombinant human IL-15 (Novoprotein), proliferative cytokine” here?
Answer: able to rescue T cell proliferation

Question: What about the “rescue of T cell expansion when PI3K and MEK inhibitors were combined” value (human T cells [4]; trametinib + BKM120) of the same compound?
Answer: could not be fully rescued

Question: And the “rescue of the defect in ERK phosphorylation in the presence of BKM120” value (ERK1/2 phosphorylation; pan-PI3K inhibitor BKM120 present)?
Answer: unable to rescue

Question: What about the “rescue of early TCR-induced MAPK signaling (ERK1/2 phosphorylation) from MEK inhibition” value (ERK1/2 phosphorylation; within 10 minutes) of the same compound?
Answer: can rescue
